Reference: patent US20120269834A1, “IMMUNOGLOBULIN CLEAVAGE FRAGMENT VACCINE COMPOSITIONS” (priority 2010, published 2012)
“And” between values parts separate entries of the source, which are not always exact repeats. Identical values can stand only once. Each block holds one substance with its values, some of them ahead of it. Ends that are not written are not given here. * marks the point of attachment. Biotin = O=C1N[C@H]2[C@H](CS[C@H]2CCCCC(=O)*)N1

Key:
[1] = target: Fab fragment of the 2095-2 antibody; conditions: 25° C; for kd / ka: 1:1 (Langmuir) model; for ka: global fit of three Fab surface densities; for Kd: calculated KD
Description: The specificity of binding was further examined using a Fab fragment of the 2095-2 antibody using a surface plasmon resonance platform (Biacore). Briefly, the Fab was immobilized to a CM5 sensor chip in a Biacore 2000 at three different surface densities (8500, 1650, and 350 RU) using standard NHS/EDC coupling. The running buffer contained 10 mM HEPES pH 7.4, 150 mM NaCl, and 0.01% Tween-20. Data were collected at 25° C.
Three N-terminally biotinylated peptides were tested for binding of to the immobilized Fab: WT, representing the expected sequence of a peptide fragment from a human IgG1 cleavage site after cleavage by the Streptococcus pyogenes IdeS protease; E233A, representing a variant of having a single alanine substitution at the amino acid residue four positions upstream of the C-terminus; and L234A, a variant having a single alanine substitution at the amino acid residue three positions upstream from the C-terminus. The peptides were modified by substituting serine for cysteine to make them compatible with the coupling chemistry and preserve the monomeric structure.
Peptides Wild type and E233A were tested in a 3-fold dilution series using 588 nM and 2.9 uM as the highest concentration, respectively. Peptide L234A was tested at 14.7 uM as the highest concentration in a 2-fold dilution series. Each peptide concentration series was tested in triplicate over the three different density Fab surfaces. The association and dissociation were monitored for 1 minute. Surfaces were regenerated with a 12 second injection of 1/500 dilution of phosphoric acid.

[2] = system: cleavage site specific analogueue peptide; experiment: ELISA titers to the peptide analogueue after immunization of rabbits; type: in vivo, rabbit; conditions: reciprocal of the dilution at which a signal was detectable, individual immunized rabbits
Source text: The procedure described in Example 3 verified that test subject rabbits have had previously developed immune titers to Staph. aureus antigens which would provide for natural bacterial targeting antibodies. To determine if rabbits would generated a sufficiently specific and robust cleavage site specific antibody response after vaccination, with cleavage site peptides, to protect against a bacterial challenge, the following experiment was perfomed where rabbits were immunized with a GluV8-cleavage site peptide analogueue (residues 7-15 of SEQ ID NO: 1, […]) conjugated to the immunogen KLH.
Following immunization, the reactivity of rabbit serum to the peptide analogueue was tested by ELISA. […] Cleavage site specific antibodies were also detected in the wiffle ball fluids of all six rabbits, with the same animal (657) having a low level of detectible antibodies.

S. aureus (ATCC 29213) = experiment: wiffle ball (tissue cage) S. aureus infection model in rabbits; type: in vivo
Source text: In order to test the capacity of cleavage site specific antibodies to rescue cleaved IgGs in vivo, a model for bacterial infection employing a “tissue cage” (Fernandez J A, et. al. (1997) Antimicrob. Agents Chemother. 43(3):667-671) was adopted. In this system, a wiffle ball is surgically implanted subcutaneously in the dorsal cervical area. The model allows the infectious agents to be localized within an easily accessible fluid compartment, a tissue pouch, and has been used to assess the efficacy of antibiotics against bacteria.
In the final phase of the study, the immunized and non-immunized rabbits were inoculated with 6.2 log10 colony forming units (CFUs) of S. aureus (ATCC 29213) directly into the wiffle-ball compartments.
The bacterial counts and test subject viability were monitored over the course of two weeks for bacterial counts and survival. The data shown in FIG. 9 indicate that during the first week of the study, the average bacterial counts for control animals were several logs higher than cleavage site specific vaccinated animals. For example, on day 2 the control had 7.2 log10 CFU/ml wiffle ball fluid while the immunized group had 5.2 log10 CFU/ml wiffle ball fluid.

human IgG1 = human IgG1 (Homo sapiens, UniProt P01857); experiment: action of human and bacterial proteases on human IgG1 (Table 1); type: biochemical; conditions: for Major Product: None = no detectable cleavage in 24 hours; for Cleaved Site: human IgG1 heavy chain, EU numbering
Description: Table 1 is a summary of the findings concerning the action of human proteases and two bacterial proteases on human IgG1. The term “Coagulation proteinases” refers to serum coagulation cascade proteins including; FXIIa, FIXa, FXa, thrombin and activated protein C; plasmin was plasminogen co-incubated with plasminogen activators; tPA, streptokinase and staphylokinase; “plasminogen activators alone” are without plasminogen; and the MMPs were recombinant proteinases obtained either as the active form or the pro-enzyme as detailed in the Materials; and “None” denotes no detectable cleavage in 24 hours. Except where indicated all enzymes where human. The residue designations are for the EU numbering system for the IgG1 antibody heavy chain where the 25 residues of SEQ ID NO: 1 corresponds to residues 219 through 243 of the complete mature heavy chain.

platelets = experiment: circulating platelet counts in dogs; type: in vivo, dog
Description: First, the c7E3 antibody antigen binding and platelet depletion parameters were established in dogs.
c7E3 IgG and c7E3 IgG single-cleaved by IdeS protease were also compared in vivo. Three groups of 5 animals received either saline control, intact c7E3 IgG (0.05 mg/kg) or c7E3 single-cleaved IgG (0.05 mg/kg). Platelet counts were monitored at baseline and at 2, 24, 48, 72 and 96 hours post-administration. Limiting the study to 5 days minimized the likelihood of anti-c7E3 immune responses that might confound the interpretation of the results. The results are presented in FIG. 3 as the mean platelet count±SD for each animal group at each time point. The extent of the error bars connotes the normal variability of platelet counts in different animals (for example, the predose counts for the 5 animals in the single-cleaved IgG treatment group were 175,000, 355,000, 305,000, 276,000 and 334,000 per μL, respectively).
To be consistent with the prior experiments, the variants of c7E3 were all administered at the 0.05 mg/kg dose. The unique aspect of the experiment (groups 6 and 7) involves the infusion of the first targeting mAb followed by the cleavage site specific mAb after a 10 minute delay. […] Platelet counts were monitored over a 96-hour period. […]

[3] = system: platelet surface IIb/III3 receptors; experiment: platelet aggregation assay; type: cell-based; conditions: 5 μM ADP; compared with intact c7E3 IgG
Description: c7E3 inhibits platelet aggregation by binding to platelet surface IIb/III3 receptors—thereby blocking the ability of fibrinogen to bind to the receptors on activated platelets and to clump them together. The respective inhibitory profiles of intact and single-cleaved c7E3 IgG were tested in a platelet aggregation assay. Platelet aggregation is measured as an increase of light transmission through a platelet suspension after activation with a physiological agonist. The inhibition is compared to control aggregation to 5 μM adenosine diphosphate (ADP). The percent inhibition was calculated as: control aggregation—test aggregation X 100%, divided by control aggregation.

Chain of human IgG1 (P01857 1-330 isoform P01857-1, other chains not shown): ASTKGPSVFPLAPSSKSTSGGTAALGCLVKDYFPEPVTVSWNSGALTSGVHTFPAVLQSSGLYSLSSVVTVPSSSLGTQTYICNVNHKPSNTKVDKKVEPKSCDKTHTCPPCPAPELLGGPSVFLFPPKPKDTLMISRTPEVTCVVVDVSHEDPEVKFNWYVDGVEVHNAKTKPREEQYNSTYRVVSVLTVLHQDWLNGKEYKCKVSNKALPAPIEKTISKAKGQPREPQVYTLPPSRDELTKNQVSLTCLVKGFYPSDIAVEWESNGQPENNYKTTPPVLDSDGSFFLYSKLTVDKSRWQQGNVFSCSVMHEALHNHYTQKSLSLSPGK

Substance: Biotin-TSPPSPAPALLG [E233A]
kd [1]: 0.1070 ± 0.04 s⁻¹ | ka [1]: 7.29 ± 0.03 M-1s-1 × 10^−5 | Kd [1]: 0.147 µM

Substance: Biotin-TSPPSPAPEALG [L234A]
kd [1]: 1.03 ± 0.01 s⁻¹ | ka [1]: 1.24 ± 0.01 M-1s-1 × 10^−5 | Kd [1]: 8.34 µM

Substance: Biotin-TSPPSPAPELLG [Wt]
kd [1]: 0.00443 ± 0.02 s⁻¹ | ka [1]: 5.22 ± 0.04 M-1s-1 × 10^−5 | Kd [1]: 0.0085 µM

Substance: C-T-S-P-P-S-P-S-P-A-P-E (CTSPPSPSPAPE; also: conjugated to KLH) [Glutamyl endopeptidase cleavage site analogueue peptide conjugated to keyhole limpet hemocyanin, used to vaccinate rabbits]
Serum (titer) [2]: 640 and 12,800 and 51,000 and 820,000 and 205,000 | Wiffle ball (titer) ([2]; wiffle ball fluid): 3,200 and 12,800 (3×) and 51,000 and 320 | average bacterial counts (S. aureus (ATCC 29213); day 2, immunized rabbits inoculated with 6.2 log10 CFUs): 5.2 log10 CFU/ml wiffle ball fluid | animals viable (S. aureus (ATCC 29213); end of the two week study): 100%

Substance: Glutamyl endopeptidase I (Glu V8 protease): glutamyl endopeptidase I from Staph. aureus
Major Product (human IgG1): F(ab′)2 + | Cleaved Site (human IgG1): Glu^233-

Substance: c7E3 single-cleaved IgG: c7E3 IgG single-cleaved in the lower hinge by IdeS protease
effect on platelet numbers (platelets; 0.05 mg/kg, groups of 5 animals, monitored to 96 hours): essentially without effect | effect on platelet numbers (platelets; FIG. 12 study, groups of 3 animals, c7E3 variants 0.05 mg/kg, 2095-2 0.5 mg/kg): without effect | binding/inhibition of platelet aggregation after single lower hinge cleavage by IdeS [3]: no loss of binding/inhibition

Further lines, results first:

Major Product (human IgG1): None
Substance: Cathepsin D: human protease

Major Product (human IgG1): F(ab′)2 + | Cleaved Site (human IgG1): Glu^233-
Substance: Cathepsin G: human serine endopeptidase

Major Product (human IgG1): None
Substance: Collagenase 2 (MMP-8): recombinant human MMP

Major Product (human IgG1): None
Substance: Interstitial collagenase (MMP-1): recombinant human MMP

Major Product (human IgG1): F(ab′)2 + | Cleaved Site (human IgG1): Leu^234-
Substance: Matrilysin (MMP-7): recombinant human MMP

Major Product (human IgG1): Fab + Fc | Cleaved Site (human IgG1): Thr^223-
Substance: Neutrophil elastase: human serine endopeptidase

Major Product (human IgG1): F(ab′)2 + | Cleaved Site (human IgG1): Pro^232-
Substance: Stromelysin (MMP-3): recombinant human MMP
